How the values were obtained:
[1] = target: benzodiazepine receptor; experiment: displacement of 3H-flunitrazepam specific binding to benzodiazepine receptors (in vitro), rat forebrain membranes; conditions: rat forebrain suspension, 3H-flunitrazepam 1.0 nM, 0° C., 40-60 min, pH 7.1
Description: These sites are called benzodiazepine receptors. The displacement activity of the compounds of the invention has been determined by determining the IC50 value and the ED50 value.
The IC50 value represents the concentration which causes a displacement of 50% of the specific binding of ^3 H-flunitrazepam (1.0 nM, 0° C.) in samples comprising a total volume of 0.55 ml of a suspension of brain membrane, e.g from rats.
The displacement test is performed as follows:
0.50 ml of a suspension of non-treated rat forebrain in 25 mM KH2 PO4, pH=7.1 (5-10 mg tissue/sample) is incubated for 40-60 minutes at 0° C. together with ^3 H-diazepam (specific activity 87 Ci/mmol, 1.0 nM) or ^3 H-flunitrazepam (specific activity 87 Ci/mmol, 1.0 nM). After incubation, the suspension is filtered through "Whatman GF/C" glass fiber filters, the residue washed twice with cold buffer solution and the radioactivity measured by scintillation counting.
The test is repeated except that prior to the addition of the radioactive labelled benzodiazepine, a given amount or an excessive amount of the compound, the displacement capability of which is to be determined, is added. Based on the data obtained the IC50 value can be calculated.

[2] = system: benzodiazepine receptor; experiment: in vivo inhibition of 3H-flunitrazepam binding to benzodiazepine receptors in mouse forebrain; conditions: mice, usually subcutaneous, 3H-flunitrazepam i.v. 15 min later, killed after further 20 min
Description: The ED50 value represents the dose (mg/kg) of a test substance which causes the specific binding of flunitrazepam to benzodiazepine receptors in a living brain to be reduced to 50% of the control value. Such an in vivo test is carried out as follows:
Groups of mice are injected with the test substance at different doses and usually subcutaneously. 15 minutes later ^3 H-flunitrazepam is administered intravenously to the mice and after further 20 minutes the mice are killed. Their forebrain membranes are removed and the radioactivity of these forebrain membranes is measured by scintillation counting. The ED50 value is determined from dose-response curves.

| SMILES | Affinity for the benzodiazepine receptor, inhibition of 3H-flunitrazepam binding, IC50 (in vitro) [1] [ng/mL] | inhibition of 3H-flunitrazepam binding, ED50 (in vivo) [2] [mg/kg] |
| --- | --- | --- |
| CCCOc1cccc2[nH]c3cnc(-c4nc(CC)no4)c(COC)c3c12 [3-[5-(3-ethyl-1,2,4-oxadiazole)-yl]-4-methoxymethyl-5-propoxy-β-carboline] | 0.3 | 1.4 |
| CCOCc1cccc2[nH]c3cnc(-c4nc(CC)no4)c(C)c3c12 | 0.26 | 0.4 |
| CCc1noc(-c2ncc3[nH]c4cccc(OC5CCC5)c4c3c2COC)n1 | 0.4 | 0.6 |
| CCc1noc(-c2ncc3[nH]c4cccc(OC5C=CCCC5)c4c3c2COC)n1 (stereo not drawn) | 0.4 | 0.75 |
| CCc1noc(-c2ncc3[nH]c4cccc(OC(C)C)c4c3c2COC)n1 | 0.2 | 0.2 |
| CCc1noc(-c2ncc3[nH]c4cccc(OC(C)C)c4c3c2C)n1 | 0.5 | 0.4 |
| CCc1noc(-c2cc3c(cn2)[nH]c2ccc(C#CCN(C)C)cc23)n1 [3-[5-(3-ethyl-1,2,4-oxadiazole)-yl]-6-(3-dimethylaminopropargyl)-β-carboline] | 0.4 | 7.9 |
| COCc1c(-c2nc(C)no2)ncc2[nH]c3cccc(OCc4ccccc4)c3c12 | 0.4 | 0.9 |
| CCc1nc(-c2ncc3[nH]c4cccc(OCc5ccccc5)c4c3c2COC)no1 | 0.5 | 1.0 |
